Data on 2 substances can be found in patent US9226917B2, “Photodynamic therapy for conditions of the eye” (Valeant Pharmaceuticals International, Inc., priority 2008, dated 2016).

In data set [1] the test system is AMD and other retinal diseases. As to conditions: intravitreal injection, published case series; cited from earlier work.
A short description of data set [2]: RADICAL study: safety / adverse events. The note with it: 12 months. Type of data set: in vivo, human. As to the method: The study is a 24-month randomized, controlled trial designed to evaluate 3 combination treatment regimens: (1) very low-fluence vPDT (15 J/cm^2) combined with ranibizumab (0.5 mg) and dexamethasone (0.5 mg); (2) half-fluence vPDT (25 J/cm^2) combined with ranibizumab and dexamethasone; and (3) half-fluence vPDT combined with ranibizumab. These regimens are compared with ranibizumab monotherapy in patients with subfoveal choroidal neovascularization (CNV) due to AMD. Inclusion criteria includes ≧50 years old; naïve to AMD treatment; best-corrected VA (BCVA) letter score of 73-24; subfoveal CNV due to AMD; and lesion size <9 DA. Patients (N=160) are randomly assigned to 1 of the 4 treatment arms at baseline, receive 1 initial treatment, and are to be evaluated for retreatment every month based on novel criteria using OCT and FA. […]
Best-corrected visual acuity is assessed by the ETDRS method at screening, on the day of initial treatment (before treatment), at monthly visits through 6 months, and at the 12-, 18-, and 24-month visits. FA is assessed at screening, at the 3- and 12-month visits, and as required according to re-treatment criteria. OCT is assessed to determine retreatment criteria at every visit. Safety, including intraocular pressure, is also evaluated at every visit. […]

The test system of a further data set is CNV due to AMD. As to conditions: dosing every 3 months compared to continued monthly dosing, on average, over the following 9 months; cited from earlier work.
The subject of data set [3] is subfoveal choroidal neovascularization (CNV) due to AMD. Nature of the data set: RADICAL study: 24-month randomized, controlled trial of vPDT combination regimens versus ranibizumab monotherapy (visual acuity, retreatments, retinal thickness). In kind it is in vivo, human. On the procedure:
The study is a 24-month randomized, controlled trial designed to evaluate 3 combination treatment regimens: (1) very low-fluence vPDT (15 J/cm^2) combined with ranibizumab (0.5 mg) and dexamethasone (0.5 mg); (2) half-fluence vPDT (25 J/cm^2) combined with ranibizumab and dexamethasone; and (3) half-fluence vPDT combined with ranibizumab. These regimens are compared with ranibizumab monotherapy in patients with subfoveal choroidal neovascularization (CNV) due to AMD. Inclusion criteria includes ≧50 years old; naïve to AMD treatment; best-corrected VA (BCVA) letter score of 73-24; subfoveal CNV due to AMD; and lesion size <9 DA. Patients (N=160) are randomly assigned to 1 of the 4 treatment arms at baseline, receive 1 initial treatment, and are to be evaluated for retreatment every month based on novel criteria using OCT and FA. Patients in the ranibizumab monotherapy group receive mandatory dosing at months 1 and 2, and as needed thereafter based on the same retreatment criteria. Patients in the combination therapy groups receive assigned treatment as needed (not more frequently than every 2 months), based on retreatment criteria; if treatment is required in an intervening month, then a ranibizumab injection is given. Study outcomes include efficacy, safety, and number of retreatments.
After their initial randomized study treatment, patients in the combination therapy groups return to the clinic monthly for re-treatment evaluation. Re-treatment criteria are based on optical coherence tomography (OCT) and fluorescein angiography (FA). If OCT central retinal thickness (CRT) is ≧250 μm or is increased >50 μm compared with the lowest previous CRT measurement, then the patient is re-treated.
Combination re-treatment is not administered more frequently than every 2 months. If re-treatment is found to be needed in an intervening month, the patient receives a ranibizumab injection only. After their initial randomized study treatment, patients in the ranibizumab monotherapy group receive mandatory re-treatment at months 1 and 2, and then re-treatment as needed thereafter based on the criteria described above. In all treatment arms, monthly assessments and potential re-treatments continue through 12 months of the study. Between 12 and 24 months, patients attend the clinic at least once every 3 months, or more frequently at the investigator's discretion.
Best-corrected visual acuity is assessed by the ETDRS method at screening, on the day of initial treatment (before treatment), at monthly visits through 6 months, and at the 12-, 18-, and 24-month visits. FA is assessed at screening, at the 3- and 12-month visits, and as required according to re-treatment criteria. OCT is assessed to determine retreatment criteria at every visit. Safety, including intraocular pressure, is also evaluated at every visit.
Study outcomes include visual acuity, CRT, lesion size, number of re-treatments, and safety. The primary efficacy variables are mean number of re-treatments and mean change from baseline in visual acuity score.
Randomization occurs on the day of the first treatment to one of the following groups: • Lucentis monotherapy. • Half-fluence Visudyne-Lucentis (V-L) double therapy. • Half-fluence (25 J/cm^2) Visudyne-Lucentis-Dexamethasone (V-L-D) triple therapy. • Very low-fluence (15 J/cm^2) Visudyne-Lucentis-Dexamethasone (V-L-D) triple therapy.
Treatments occur within 7 days of baseline FA. […]

Take bevacizumab [Avastin]: in data set [1], the “mean VA in treated patients” value is listed as “increase of mean VA”.

ranibizumab [Lucentis monotherapy]: the “Ocular adverse events considered associated with treatment (share of patients)” value in data set [2] is given as “approximately one-fourth”. Further, in the data set on CNV due to AMD, the “loss of visual acuity benefit” value is recorded as approximately 5 letter. Further, in data set [3] (12 months), the “percentage of patients whose vision improved by 3 lines or more” value was 24%. Moreover, the Mean retreatment rate in data set [3] (ITT, 12 months, Day 0 treatment excluded) is listed as 5.4; in data set [3] (Per-protocol, 12 months), 5.9. Also, the “Mean VA improvement from baseline (letters)” value in data set [3] (ITT, month 12) is on record as 6.5 letters; in data set [3] (Per-protocol, 12 months), 6.8 letters.
